# Test results from US10800785B2, “Substituted pyrrolo[2,3-d]pyridazin-4-ones and pyrazolo[3,4-d]pyridazin-4-ones as protein kinase inhibitors” (Shanghai Fochon Pharmaceutical Co., Ltd., priority 2016, dated 2020).
# Tested on: DOHH2 cells
# Experiment: Cell proliferation assay (MTS) in DOHH2 cells, mechanism-based assay for BTK inhibition
# Settings: Homo sapiens, DOHH-2, 120 h incubation, 5000 cells/well
# From the text: Cell Proliferation Assays
# MTS testing kit was purchased from Promega. The DMEM, Fetal bovine serum and Penicillin-Streptomycin were purchased from Gibco. Dimethyl sulfoxide (DMSO) was purchased from Sigma.
# To investigate whether a compound is able to inhibit the activity of BTK in cells, a mechanism-based assay using DOHH2 (DSMZ catalog#: ACC47) and Mino (ATCC® Number CRL-3000™) cells was developed. In this assay, inhibition of BTK was detected by the inhibition of DOHH2 and Mino cell proliferations. DOHH2 or Mino cells were cultured in culture flasks to 40-80% confluence in RPMI-1640 plus 10% fetal bovine serum. C ells were collected and plated onto 96-well plates at desired cell density (DOHH2: 5000 cells/well; Mino: 10000 cells/well). Plates were incubated overnight at 37° C., with 5% CO2 to adhere. Compounds were added to the plates, and the final compound concentrations were 10000, 3333, 1111, […], 41, 14, 4.6 and 1.5 nM. Plates were placed at 37° C., with 5% CO2 for 120 h (DOHH2) or 72 h (Mino). 20 μl MTS/100 μl medium mixture solution were added to each well and the plates were incubated for exactly 2 hours. The reaction was stopped by adding 25 μl 10% SDS per well.
# Select compounds prepared as described above were assayed according to the biological procedures described herein.
row,Compound,IC50
1,"C=CC(=O)N1CCC[C@H](c2cn(-c3ccc(Oc4ccccc4F)cc3)c3c(N)n[nH]c(=O)c23)C1 [Example 35, (R)-3-(1-acryloylpiperidin-3-yl)-7-amino-1-(4-(2-fluorophenoxy)phenyl)-1,5-dihydro-4H-pyrrolo [2,3-d]pyridazin-4-one]",33 nM
2,"CC#CC(=O)N1CCC(c2cn(-c3ccc(Oc4ccccc4)cc3)c3c(N)n[nH]c(=O)c23)C1 (stereo not shown) [Example 2, 7-amino-3-(1-(but-2-ynoyl)pyrrolidin-3-yl)-1-(4-phenoxyphenyl)-1,5-dihydro-4H-pyrrolo[2,3-d]pyridazin-4-one]",244 nM
3,"C=CC(=O)N1CC[C@H](c2cn(-c3ccc(Oc4ccccc4F)cc3)c3c(N)n[nH]c(=O)c23)C1 [Example 23, (R)-3-(1-acryloylpyrrolidin-3-yl)-7-amino-1-(4-(2-fluorophenoxy)phenyl)-1,5-dihydro-4H-pyrrolo[2,3-d]pyridazin-4-one]",42 nM
4,"C=CC(=O)N1CC[C@H](c2nn(-c3ccc(Oc4cc(F)cc(F)c4)cc3)c3c(N)n[nH]c(=O)c23)C1 [Example 52, (S)-3-(1-acryloylpyrrolidin-3-yl)-7-amino-1-(4-(3,5-difluorophenoxy)phenyl)-1,5-dihydro-4H-pyrazolo[3,4-d]pyridazin-4-one]",321 nM
5,"CCN1CC[C@@H]1/C=C/C(=O)N1CCC[C@@H](c2cn(-c3ccc(Oc4ccccc4F)cc3)c3c(N)n[nH]c(=O)c23)C1 [Example 110, 7-amino-3-((S)-1-((E)-3-((R)-1-ethylazetidin-2-yl)acryloyl)piperidin-3-yl)-1-(4-(2-fluorophenoxy)phenyl)-1,5-dihydro-4H-pyrrolo[2,3-d]pyridazin-4-one]",123 nM
6,"CN(C)C/C=C/C(=O)N1CCC[C@@H](c2cn(-c3ccc(Oc4ccccc4F)cc3)c3c(N)n[nH]c(=O)c23)C1 [Example 104, (S,E)-7-amino-3-(1-(4-(dimethylamino)but-2-enoyl)piperidin-3-yl)-1-(4-(2-fluorophenoxy)phenyl)-1,5-dihydro-4H-pyrrolo[2,3-d]pyridazin-4-one]",151 nM
7,"CC#CC(=O)N1CC[C@@H](c2cn(-c3ccc(Oc4ccccc4F)cc3)c3c(N)n[nH]c(=O)c23)C1 [Example 75, (S)-7-amino-3-(1-(but-2-ynoyl)pyrrolidin-3-yl)-1-(4-(2-fluorophenoxy)phenyl)-1,5-dihydro-4H-pyrrolo[2,3-d]pyridazin-4-one]",383 nM
8,"CN(C)C/C=C/C(=O)N1CC[C@@H](c2cn(-c3ccc(Oc4ccccc4F)cc3)c3c(N)n[nH]c(=O)c23)C1 [Example 94, (S,E)-7-amino-3-(1-(4-(dimethylamino)but-2-enoyl)pyrrolidin-3-yl)-1-(4-(2-fluorophenoxy)phenyl)-1,5-dihydro-4H-pyrrolo[2,3-d]pyridazin-4-one]",247 nM
9,"C=CC(=O)N1CC[C@H](c2nn(-c3ccc(Oc4cccc(F)c4F)cc3)c3c(N)n[nH]c(=O)c23)C1 [Example 50, (S)-3-(1-acryloylpyrrolidin-3-yl)-7-amino-1-(4-(2,3-difluorophenoxy)phenyl)-1,5-dihydro-4H-pyrazolo[3,4-d]pyridazin-4-one]",678 nM
10,"C=CC(=O)N1CCC[C@H](c2cn(-c3ccc(Oc4cc(F)cc(F)c4)cc3)c3c(N)n[nH]c(=O)c23)C1 [Example 40, (R)-3-(1-acryloylpiperidin-3-yl)-7-amino-1-(4-(3,5-difluorophenoxy)phenyl)-1,5-dihydro-4H-pyrrolo[2,3-d]pyridazin-4-one]",375 nM
11,"C=CC(=O)N1CCC[C@@H](c2cn(-c3ccc(Oc4ccccc4F)cc3)c3c(N)n[nH]c(=O)c23)C1 [Example 29, (S)-3-(1-acryloylpiperidin-3-yl)-7-amino-1-(4-(2-fluorophenoxy)phenyl)-1,5-dihydro-4H-pyrrolo [2,3-d]pyridazin-4-one]",46 nM
12,"CC#CC(=O)N1CC[C@H](c2nn(-c3ccc(Oc4ccccc4)cc3)c3c(N)n[nH]c(=O)c23)C1 [Example 66, (S)-7-amino-3-(1-(but-2-ynoyl)pyrrolidin-3-yl)-1-(4-phenoxyphenyl)-1,5-dihydro-4H-pyrazolo [3,4-d]pyridazin-4-one]",242 nM
13,"COC/C=C/C(=O)N1CCC[C@@H](c2cn(-c3ccc(Oc4ccccc4F)cc3)c3c(N)n[nH]c(=O)c23)C1 [Example 102, (S,E)-7-amino-1-(4-(2-fluorophenoxy)phenyl)-3-(1-(4-methoxybut-2-enoyl)piperidin-3-yl)-1,5-dihydro-4H-pyrrolo[2,3-d]pyridazin-4-one]",319 nM
14,"CC#CC(=O)N1CCC(c2nn(-c3ccc(Oc4c(F)cccc4F)cc3)c3c(N)n[nH]c(=O)c23)C1 (stereo not shown) [Example 8, 7-amino-3-(1-(but-2-ynoyl)pyrrolidin-3-yl)-1-(4-(2,6-difluorophenoxy)phenyl)-1,5-dihydro-4H-pyrazolo[3,4-d]pyridazin-4-one]",304 nM
15,"C=CC(=O)N1CC[C@H](c2cn(-c3ccc(Oc4cccc(F)c4F)cc3)c3c(N)n[nH]c(=O)c23)C1 [Example 26, (R)-3-(1-acryloylpyrrolidin-3-yl)-7-amino-1-(4-(2,3-difluorophenoxy)phenyl)-1,5-dihydro-4H-pyrrolo[2,3-d]pyridazin-4-one]",260 nM
16,"C=CC(=O)N1CC(c2cn(-c3ccc(Oc4ccccc4)cc3)c3c(N)n[nH]c(=O)c23)C1 [Example 114, 3-(1-acryloylazetidin-3-yl)-7-amino-1-(4-phenoxyphenyl)-1,5-dihydro-4H-pyrrolo[2,3-d] pyridazin-4-one]",473 nM
17,"C=CC(=O)N1CCC(c2cn(-c3ccc(Oc4ccccc4)cc3)c3c(N)n[nH]c(=O)c23)C1 (stereo not shown) [Example 1, 3-(1-acryloylpyrrolidin-3-yl)-7-amino-1-(4-phenoxyphenyl)-1,5-dihydro-4H-pyrrolo[2,3-d]pyridazin-4-one]",36 nM
18,"C=CC(=O)N1CCC(c2cn(-c3ccc(Oc4c(F)cccc4F)cc3)c3c(N)n[nH]c(=O)c23)C1 (stereo not shown) [Example 3, 3-(1-acryloylpyrrolidin-3-yl)-7-amino-1-(4-(2,6-difluorophenoxy)phenyl)-1,5-dihydro-4H-pyrrolo[2,3-d]pyridazin-4-one]",147 nM
19,"C=CC(=O)N1CCC(c2nn(-c3ccc(Oc4c(F)cccc4F)cc3)c3c(N)n[nH]c(=O)c23)C1 (stereo not shown) [Example 7, 3-(1-acryloylpyrrolidin-3-yl)-7-amino-1-(4-(2,6-difluorophenoxy)phenyl)-1,5-dihydro-4H-pyrazolo[3,4-d]pyridazin-4-one]",182 nM
20,"C=CC(=O)N1CC[C@H](c2cn(-c3ccc(Oc4ccccc4)cc3)c3c(N)n[nH]c(=O)c23)C1 [Example 10, (R)-3-(1-acryloylpyrrolidin-3-yl)-7-amino-1-(4-phenoxyphenyl)-1,5-dihydro-4H-pyrrolo[2,3-d]pyridazin-4-one]",20 nM
21,"CC#CC(=O)N1CCC[C@@H](c2cn(-c3ccc(Oc4c(F)cccc4F)cc3)c3c(N)n[nH]c(=O)c23)C1 [Example 87, (S)-7-amino-3-(1-(but-2-ynoyl)piperidin-3-yl)-1-(4-(2,6-difluorophenoxy)phenyl)-1,5-dihydro-4H-pyrrolo[2,3-d]pyridazin-4-one]",265 nM
22,"C=CC(=O)N1CCC[C@H](c2nn(-c3ccc(Oc4cccc(F)c4F)cc3)c3c(N)n[nH]c(=O)c23)C1 [Example 62, (S)-3-(1-acryloylpiperidin-3-yl)-7-amino-1-(4-(2,3-difluorophenoxy)phenyl)-1,5-dihydro-4H-pyrazolo[3,4-d]pyridazin-4-one]",147 nM
